According to patent US9205108B2, “Treatment of traumatic brain injury by using gallium compounds to reduce oxidative stress levels” (priority 2012, dated 2015):

Assays:
protein carbonyls = experiment: Protein carbonyl analysis (slot blot, 2,4-DNP) of whole brain homogenate after controlled cortical contusion; type: in vivo, C57BL/6NHsd mice; settings: for Protein carbonyl: difference compared to control (sham): whole brain homogenate
Protocol: (§1) Twenty C57BL/6NHsd mice were used for a study. Mice were set into five groups: sham, 15 minutes saline, 15 minutes gallium, 30 minutes gallium, and 30 minutes saline. A moderate controlled cortical contusion was given to all animals except the four animals in the sham group. The 15 minutes gallium group was injected with 10 mg/kg gallium nitrate at 15 minutes post injury. The 15 minutes saline group was injected with saline at 15 minutes post injury. The 30 minutes gallium group was injected with 10 mg/kg gallium nitrate at 30 minutes post injury. The 30 minutes saline group was injected with saline at 30 minutes post injury. A sample size of 4 was used for each group except gallium nitrate treated samples at 15 minutes post injury (n=3), gallium nitrate treated samples at 30 minutes post injury (n=5), and saline treated animals at 30 minutes (n=3).
(§2) A gallium compound was delivered by injection, in particular, intraperitoneal injection. […] Due to this unequal pairing, statistics (Student's t-test) were performed using unpaired analysis. P values <0.05 were deemed significant. Western blots (slot blots) were run for all samples and immunoblotting was performed with the following antibodies 2,4-DNP (protein carbonyls) and anti-3-nitrotyrosine (protein nitration). All blots were run twice for reproducibility. All samples were compared to sham (craniotomy only, but no injury), which has been used as a baseline (control).
(§3) The two parameters for oxidative stress were run on whole brain homogenate using immunochemical detection.

3-nitrotyrosine (3-NT) = experiment: Protein nitration analysis (slot blot, anti-3-nitrotyrosine) of whole brain homogenate after controlled cortical contusion; type: in vivo, C57BL/6NHsd mice; settings: for Protein nitration (3-NT): difference compared to control (sham): whole brain homogenate
Protocol: as §1, §2, §3
Protein nitration is determined by indexing levels of 3-nitrotyrosine (3-NT). […] The difference between saline groups and the gallium groups at 30 minutes was statistically significant.

[1] = 100-300 mg/m²/day over 5-7 days; cited from earlier work
[2] = 10 mg/kg intraperitoneal injection at 15 minutes post injury
[3] = 10 mg/kg intraperitoneal injection at 30 minutes post injury

## O=[N+]([O-])[O-].O=[N+]([O-])[O-].O=[N+]([O-])[O-].[Ga+3] [Gallium nitrate, gallium nitrate]
Protein carbonyls; [2]
  Protein carbonyl: difference compared to control (sham): 17.5% reduction
Protein carbonyls; [3]
  Protein carbonyl: difference compared to control (sham): 6.6% reduction
Protein carbonyls; both time points (15 and 30 minutes post injury)
  Oxidative stress (protein carbonyls), result in words: reduction in oxidative stress
3-nitrotyrosine (3-NT); [2]
  Protein nitration (3-NT): difference compared to control (sham): 61.3% increase
3-nitrotyrosine (3-NT); [3]
  Protein nitration (3-NT): difference compared to control (sham): 18.1% increase
3-nitrotyrosine (3-NT); treatment at 15 minutes post injury
  Levels of 3-NT, result in words: increase in the levels of 3-NT
3-nitrotyrosine (3-NT); treatment at 30 minutes post injury, difference to saline group statistically significant
  Levels of 3-NT, result in words: significant reduction in the levels of 3-NT
[1]
  Reduction of calcium excretion: 70+18%
